Reference: patent publication US9611286B2, “Ruthenium carbon monoxide releasing molecules and uses thereof” (Alfama, Inc., priority 2011, dated 2017)

What was measured:
[1] = Determination of CO in tissues; type: in vivo; conditions: one hour after i.v. administration, non-infected mice
Method: It is hypothesized that Compound 1 promotes/increases erythrophagocytosis.
CO was quantified in different tissues as previously described (see, e.g., Vreman et al., Anal Biochem (2005) 341:280-289). Briefly, CO was liberated as gas in a closed vial by adding 25 μL of water and 5 μL of sulfosalicylic acid (SSA, 30% [wt/vol]) to 30 μL of diluted sample after being homogenized. The vials were incubated on ice for at least 10 min before being analyzed. The gas in the headspace of the vials was analyzed quantitatively with a gas chromatograph (GC) equipped with a reducing-compound photometry detector (RCP detector) (Peak Laboratories, Mountain View, Calif.), which allows to quantify CO in gas at concentrations as low as 1-2 parts per billion (ppb). The amount of CO was calculated using a calibration curve prepared from CO standards. Briefly, blood was collected from the tail of the mice to capillary tubes (VWR) with heparin (100 i.u./ml in PBS 1×; LEO Pharma Inc.), transferred into AVOXimeter 4000 cuvettes (ITC) where the levels of carboxyhemoglobin (COHb), oxyhemoglobin (O2Hb) and methemoglobin (MetHb) were measured in a portable AVOXimeter 4000 CO-oximeter (ITC). Results are shown as mean percentage of total hemoglobin species in circulation.

P. berghei ANKA = assay: In vitro replication of P. berghei ANKA; type: cell-based, Plasmodium berghei; conditions: 24 h
Method: The data led the inventors to wonder whether Compound 1 could have a direct anti-parasitic effect on P. berghei ANKA and P. falciparum parasites. To this end, the effect of Compound 1 and the anti-malarial chloroquine (CQ) was monitored on the in vitro replication of P. falciparum 3D7 isolate and P. berghei ANKA for 48 h and 24 h, respectively.

HO-1 = HO-1 mRNA expression by qRT-PCR in infected mice; type: in vivo, C57BL/6 mice; conditions: day 3 after infection
Method: Mice were sacrificed, when infected control mice presented signs of ECM, and perfused intracardially with PBS to remove circulating RBC and leukocytes from the organs. RNA was isolated from brains, livers and lungs using Trizol Reagent (Invitrogen, Life technologies), according to the manufacturer's recommendation. The synthesis of the first-strand cDNA from the RNA templates was carried out using the Transcriptor First Strand cDNA Synthesis Kit (Roche). RT-PCR reactions were performed in the presence of SYBER Green (SYBER Green PCR master mix, Applied Biosystems) on an ABI PRISM 7500Fast (Applied Biosystem). Oligonucleotides used for the specific amplification of genes include:
The relative changes in gene expression between experimental and control groups were calculated by the Pfaffl method using hprt as internal control gene. Statistical Analysis

VEGF = VEGF protein levels in plasma (ELISA), M-AALI model; type: in vivo; conditions: infected DBA/2 mice
Method: Mouse VEGF in plasma samples was determined using a commercial ELISA kit (R&D Systems) following the manufacturer's instructions. The group classification was only performed by the end of each experiment after determining the cause of death.

P. berghei ANKA GFP = type: in vivo, C57BL/6 mice; conditions: treated twice daily days 2-3; observed from about day 5 to day 8 of infection
Method: It has previously been shown that administration of CO by inhalation protects P. berghei ANKA infected C57BL/6 mice from developing ECM (see, e.g., Pamplona et al. Nat Med (2007) 13:703-710). The inventors questioned whether CO-RMs could mimic the protection conferred by CO inhalation in P. berghei ANKA infection. To this end, a known ruthenium CORM, Ru(CO)3Cl2, also referred to herein as CORM-2, was tested on different schedules of treatment and doses in P. berghei ANKA infected C57BL/6 mice (data not shown).
Red blood cells infected with green fluorescent protein (GFP)-transgenic P. berghei ANKA and P. berghei ANKA was used to infect mice (see, e.g., Franke-Fayard et al. Mol Biochem Parasitol (2004) 137:23-33). Cryopreserved parasites were passed once through C57BL/6 or DBA-2 mice before being used to infect experimental animals. C57BL/6 or DBA-2, 6- to 8-wk-old mice (sex matched in each experiment) were infected by intra-peritoneal (i.p.) injection of 10^6 infected RBCs. The infected mice were monitored daily for clinical symptoms of experimental cerebral malaria (ECM) including hemi- or paraplegia, head deviation, tendency to roll over on stimulation, ataxia and convulsions, or ALI, including dyspnea. Mice showing severe signs of ECM at day 5, 6 or 7 post-infection (p.i.) and ALI between days 7 and 9 were sacrificed. Parasitemia was assessed by flow cytometry for mice infected with GFP-expressing P. berghei ANKA, using tail blood, as previously described (see, e.g., Pamplona et al., Nat Med (2007) 13:703-710). Mean parasitemia is expressed as percentage of infected red blood cells. For mice infected with non-GFP P. berghei parasitemia was assessed daily by microscopic counting of Giemsa-stained thin blood smears. Mean parasitemia is expressed as percentage of infected red blood cells. Survival is expressed as percentage.
In order to evaluate the clinical presentation of experimental cerebral malaria, a classification was used in clinical stages from 0 to 4 (see, e.g., Bienvenu et al., Acta Trop (2008) 106:104-8; Franklin et al., Proc Natl Acad Sci USA (2011) 108:3689-94). Briefly, stage 0 indicates no detectable clinical symptoms, stage 1, ruffled fur; stage 2, ruffled fur and unbalancing; stage 3, limb paralysis and respiratory distress and stage 4, convulsions, coma or death. The mice were clinically classified before and after the treatment to evaluate the clinical recovery.
CORM-2 (Sigma-Aldrich) and Compound 2 were solubilized using 10% dimethyl sulfoxide (DMSO; Sigma-Aldrich) in PBS. CORM-3 and Compound 1 were solubilized in PBS (lx). CORM-2 solution (20 mg/kg of body weight) was administered intravenously (i.v.) according to the chosen schedules. […] As vehicle control, we used a solution of 10% DMSO in PBS administered i.v. The concentrations of CORM-2 used in the present study were based on previous reports (see, e.g., Chen et al. Am. J. Pathol. (2009) 175:422-429; Sun et al., World. J. Gastroenterol. (2008) 14:547-553). Artesunate is presented as a powder of artesunic acid. Artesunate (AS) solution was prepared by dissolving 60 mg of anhydrous artesunic acid in 1 ml of sodium bicarbonate (5%) to form sodium artesunate and then diluted in 5 ml of NaCl (0.9%). An AS solution (i.p.) was administered at 40 mg/Kg/day, as described previously (see, e.g., Bienvenu, Acta Trop (2008) 106:104-108). The AS treatment was started when the infected non-treated mice presented the clinical stage 1 for experimental cerebral malaria.

Structure (SMILES): C[SH]([C@@H]1OC(CO)[C@H](O)[C@H](O)C1O)[Ru]([Cl])([Cl])([CH]=O)([CH]=O)[CH]=O (some centres unmarked) [Compound 1, Tricarbonyldichloro(methylthiogalactopyranoside) Ru(II)]
- levels of CO in organs [1]: higher levels of CO in the liver and spleen
- inhibition of in vitro growth (P. berghei ANKA): does not inhibit in vitro growth
- HO-1 mRNA expression in brain vs non-infected and Compound 2-treated mice (HO-1): not significantly different
- VEGF levels in plasma (VEGF): significantly lower
- effect on parasitemia (P. berghei ANKA GFP): small but significant arrest in parasitemia
